# Assays:
# [1] = system: histones (H3), p21; test: Histone acetylation and p21 expression after SAHA (FIG. 2B); assay type: cell-based
# Description: (§1) Moreover, exposure to SAHA increases the acetylation of histones (H3) and the expression of p21 (FIG. 2B). […] SAHA downregulates the levels and auto-phosphorylation, the addition of a phosphate group, of Bcr-Abl (FIG. 2C).
# [2] = system: imatinib refractory (resistant) cells; test: Apoptosis of imatinib refractory cells after SAHA; assay type: cell-based
# [3] = system: p27 (gene); conditions: previously shown; cited from earlier work
# [4] = system: Lama-84 cells; test: Apoptosis of Lama-84 cells after SAHA exposure; assay type: cell-based; conditions: 1.0 to 10.0 uM SAHA for 48 hours; FIG. 2A
# [5] = system: p27 in K562 cells; test: p27 expression in K562 cells after SAHA (FIG. 2B); assay type: cell-based
# Description: as §1
# [6] = system: Bcr-Abl; test: Bcr-Abl levels and auto-phosphorylation after SAHA (FIG. 2C); assay type: cell-based
# Description: as §1
# [7] = system: K562 cells; test: Apoptosis of K562 cells after SAHA exposure; assay type: cell-based; conditions: 1.0 to 10.0 uM SAHA for 48 hours; FIG. 2A
# [8] = system: K562; test: Cell cycle distribution of K562 cells after SAHA; assay type: cell-based; conditions: 1.0 to 5.0 uM SAHA for 48 hours; dose-dependent
# Method: Treatment with 1.0 to 5.0 uM SAHA for 48 hours increased the percentage of K562 in the G1 (the gap in the cell division cycle between mitosis and synthesis) phase of the cell cycle in a dose-dependent manner.
# [9] = system: p27 in LAMA cells; test: p27 expression in LAMA cells after SAHA (FIG. 2B); assay type: cell-based
# Description: as §1
compound,measurement,setting,value
"O=C(CCCCCCC(=O)Nc1ccccc1)NO [SAHA, Suberoylanilide Hydromaxic Acid]",acetylation of histones (H3),[1],increases
same,expression of p21,[1],increases
same,apoptosis in imatinib refractory (resistant) cells,[2],induces apoptosis
same,acetylation of histones of the chromatin associated with p27 (gene) / its transcription,[3],not to induce acetylation
same,apoptosis of Lama-84 cells,[4],dose-dependent increase
same,p27 expression,[5],induced p27 expression
same,auto-phosphorylation of Bcr-Abl,[6],downregulates
same,levels of Bcr-Abl,[6],downregulates
same,apoptosis of K562 cells,[7],dose-dependent increase
same,percentage of K562 in the G1 phase of the cell cycle,[8],increased
same,p27 expression,[9],induced p27 expression
